Where two headings read alike, the source gives them in different places.
Experiments:
[1] = biological target: T1, HIPK2 (Homo sapiens, UniProt Q9H2X6); assay: KINOMEscan; format: binding; details: for Kd: HIPK2, N.B.: no binding at concentrations up to 30 µM
T1 construct: purchased Eurofins Pharma Discovery (KINOMEscan)
Protocol: (§1) Kinase profiling was performed by KINOMEscan (Eurofins Pharma Discovery, San Diego, CA, USA), using a panel of 423 protein kinases, as described previously. Compounds were submitted for dissociation constant (Kd) determination toward several target kinases using KINOMEscan. […] Binding reactions were performed at room temperature for 1 h, and the fraction of kinase not bound to the test compound was determined by capture with an immobilized affinity ligand and quantified by quantitative polymerase chain reaction. The primary screening at fixed concentrations of the compound was performed in duplicate. For dissociation constant Kd determination, a 12-point half-log dilution series (a maximum concentration of 33 μM) was used.

[2] = biological target: T2, IRAK1 (Homo sapiens, UniProt P51617); assay: KINOMEscan; format: binding
T2 construct: purchased Eurofins Pharma Discovery (KINOMEscan)
T2 sequence (P51617 whole entry): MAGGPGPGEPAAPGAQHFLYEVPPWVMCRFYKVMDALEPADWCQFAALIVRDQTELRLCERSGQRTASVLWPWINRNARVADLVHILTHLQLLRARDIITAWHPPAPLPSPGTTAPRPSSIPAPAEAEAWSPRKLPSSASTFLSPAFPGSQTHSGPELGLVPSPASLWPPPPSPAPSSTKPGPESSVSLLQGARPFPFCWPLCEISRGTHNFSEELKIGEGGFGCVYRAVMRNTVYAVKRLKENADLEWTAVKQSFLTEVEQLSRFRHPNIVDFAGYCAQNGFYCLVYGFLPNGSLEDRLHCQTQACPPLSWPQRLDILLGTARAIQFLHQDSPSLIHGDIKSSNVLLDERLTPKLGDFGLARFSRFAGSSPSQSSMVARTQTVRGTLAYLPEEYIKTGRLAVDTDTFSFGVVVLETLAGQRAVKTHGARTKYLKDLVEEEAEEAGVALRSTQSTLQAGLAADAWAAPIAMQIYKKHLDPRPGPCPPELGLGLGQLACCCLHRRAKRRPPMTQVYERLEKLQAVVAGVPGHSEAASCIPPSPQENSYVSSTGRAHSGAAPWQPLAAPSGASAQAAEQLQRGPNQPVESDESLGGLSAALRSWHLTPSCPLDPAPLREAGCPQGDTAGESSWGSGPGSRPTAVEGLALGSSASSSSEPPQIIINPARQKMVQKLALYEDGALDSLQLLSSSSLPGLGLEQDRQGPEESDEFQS
Protocol: as §1

[3] = biological target: T3, DAPK2 (Homo sapiens, UniProt Q9UIK4); assay: KINOMEscan; format: binding; details: for Kd: DAPK2, N.B.: no binding at concentrations up to 30 µM
T3 construct: purchased Eurofins Pharma Discovery (KINOMEscan)
T3 sequence (Q9UIK4 whole entry): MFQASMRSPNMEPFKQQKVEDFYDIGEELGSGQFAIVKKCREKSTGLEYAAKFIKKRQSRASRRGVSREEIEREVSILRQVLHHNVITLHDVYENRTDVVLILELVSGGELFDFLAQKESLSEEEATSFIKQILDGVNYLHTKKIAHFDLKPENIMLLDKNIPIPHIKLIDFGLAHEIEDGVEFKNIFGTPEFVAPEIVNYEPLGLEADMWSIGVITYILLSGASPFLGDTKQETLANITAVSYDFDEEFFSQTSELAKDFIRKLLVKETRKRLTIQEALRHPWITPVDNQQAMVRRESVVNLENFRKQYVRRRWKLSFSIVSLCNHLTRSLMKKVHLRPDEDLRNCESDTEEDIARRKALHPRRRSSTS
Protocol: as §1

[4] = biological target: T4, HASPIN (Homo sapiens, UniProt Q8TF76); assay: KINOMEscan; format: binding; details: for Kd: Haspin, N.B.: no binding at concentrations up to 30 µM
T4 construct: purchased Eurofins Pharma Discovery (KINOMEscan)
T4 sequence (Q8TF76 1-798): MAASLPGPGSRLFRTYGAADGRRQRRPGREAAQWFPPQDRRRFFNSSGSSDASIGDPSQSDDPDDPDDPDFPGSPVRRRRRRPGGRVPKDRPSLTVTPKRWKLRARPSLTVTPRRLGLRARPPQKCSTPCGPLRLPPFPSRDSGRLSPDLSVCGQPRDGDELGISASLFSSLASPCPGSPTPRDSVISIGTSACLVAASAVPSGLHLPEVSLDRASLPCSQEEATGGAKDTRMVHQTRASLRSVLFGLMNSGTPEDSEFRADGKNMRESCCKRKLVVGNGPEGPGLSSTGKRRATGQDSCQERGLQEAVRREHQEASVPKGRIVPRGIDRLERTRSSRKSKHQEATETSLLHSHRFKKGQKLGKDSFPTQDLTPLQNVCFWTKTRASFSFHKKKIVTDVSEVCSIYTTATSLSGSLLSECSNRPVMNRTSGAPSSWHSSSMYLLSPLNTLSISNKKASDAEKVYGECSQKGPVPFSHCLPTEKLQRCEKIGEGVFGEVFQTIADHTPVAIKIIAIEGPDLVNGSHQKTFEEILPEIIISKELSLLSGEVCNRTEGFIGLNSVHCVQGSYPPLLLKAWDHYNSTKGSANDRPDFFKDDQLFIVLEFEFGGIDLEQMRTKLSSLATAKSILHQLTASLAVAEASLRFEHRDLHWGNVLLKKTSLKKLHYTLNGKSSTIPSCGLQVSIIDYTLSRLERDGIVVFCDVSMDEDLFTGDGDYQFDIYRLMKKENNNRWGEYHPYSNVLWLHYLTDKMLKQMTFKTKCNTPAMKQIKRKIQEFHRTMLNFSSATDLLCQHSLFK
Protocol: as §1

[5] = biological target: T5, HIPK1 (Homo sapiens, UniProt Q86Z02); assay: KINOMEscan; format: binding; details: for Kd: HIPK1, N.B.: no binding at concentrations up to 30 µM
T5 construct: purchased Eurofins Pharma Discovery (KINOMEscan)
T5 sequence (Q86Z02 whole entry): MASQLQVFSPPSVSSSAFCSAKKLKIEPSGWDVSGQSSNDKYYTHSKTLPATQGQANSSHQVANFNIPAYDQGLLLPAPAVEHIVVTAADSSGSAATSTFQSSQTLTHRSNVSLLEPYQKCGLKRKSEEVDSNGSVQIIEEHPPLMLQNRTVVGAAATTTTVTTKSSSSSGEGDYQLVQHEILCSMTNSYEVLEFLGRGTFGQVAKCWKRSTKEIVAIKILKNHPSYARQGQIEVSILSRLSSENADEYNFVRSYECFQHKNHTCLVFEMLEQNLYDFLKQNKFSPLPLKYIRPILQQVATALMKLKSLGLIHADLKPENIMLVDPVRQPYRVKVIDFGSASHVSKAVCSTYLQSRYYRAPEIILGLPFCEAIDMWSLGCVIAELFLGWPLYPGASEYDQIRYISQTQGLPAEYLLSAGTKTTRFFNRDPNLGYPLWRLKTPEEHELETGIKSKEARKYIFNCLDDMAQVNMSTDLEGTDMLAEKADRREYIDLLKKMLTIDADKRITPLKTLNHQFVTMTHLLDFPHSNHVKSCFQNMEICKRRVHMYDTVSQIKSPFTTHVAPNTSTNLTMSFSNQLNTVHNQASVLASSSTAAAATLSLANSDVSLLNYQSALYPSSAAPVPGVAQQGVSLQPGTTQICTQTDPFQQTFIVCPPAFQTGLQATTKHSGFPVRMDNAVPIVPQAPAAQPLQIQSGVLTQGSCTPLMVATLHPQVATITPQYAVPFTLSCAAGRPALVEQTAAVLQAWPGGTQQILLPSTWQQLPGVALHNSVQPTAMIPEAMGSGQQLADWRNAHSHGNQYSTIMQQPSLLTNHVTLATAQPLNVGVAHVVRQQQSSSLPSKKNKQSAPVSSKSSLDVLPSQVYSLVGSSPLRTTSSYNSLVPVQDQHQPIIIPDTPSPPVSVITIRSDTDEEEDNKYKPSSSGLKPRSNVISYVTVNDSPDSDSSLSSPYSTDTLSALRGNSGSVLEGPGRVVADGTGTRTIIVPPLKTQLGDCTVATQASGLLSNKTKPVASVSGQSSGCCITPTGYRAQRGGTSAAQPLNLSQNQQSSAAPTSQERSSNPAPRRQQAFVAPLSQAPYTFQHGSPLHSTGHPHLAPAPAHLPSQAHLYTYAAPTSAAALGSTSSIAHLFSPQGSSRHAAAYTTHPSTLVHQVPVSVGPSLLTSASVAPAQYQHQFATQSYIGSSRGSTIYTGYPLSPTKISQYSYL
Protocol: as §1

[6] = biological target: T6, DYRK1B (Homo sapiens, UniProt Q9Y463); assay: KINOMEscan; format: binding
T6 construct: purchased Eurofins Pharma Discovery (KINOMEscan)
T6 sequence (Q9Y463 whole entry): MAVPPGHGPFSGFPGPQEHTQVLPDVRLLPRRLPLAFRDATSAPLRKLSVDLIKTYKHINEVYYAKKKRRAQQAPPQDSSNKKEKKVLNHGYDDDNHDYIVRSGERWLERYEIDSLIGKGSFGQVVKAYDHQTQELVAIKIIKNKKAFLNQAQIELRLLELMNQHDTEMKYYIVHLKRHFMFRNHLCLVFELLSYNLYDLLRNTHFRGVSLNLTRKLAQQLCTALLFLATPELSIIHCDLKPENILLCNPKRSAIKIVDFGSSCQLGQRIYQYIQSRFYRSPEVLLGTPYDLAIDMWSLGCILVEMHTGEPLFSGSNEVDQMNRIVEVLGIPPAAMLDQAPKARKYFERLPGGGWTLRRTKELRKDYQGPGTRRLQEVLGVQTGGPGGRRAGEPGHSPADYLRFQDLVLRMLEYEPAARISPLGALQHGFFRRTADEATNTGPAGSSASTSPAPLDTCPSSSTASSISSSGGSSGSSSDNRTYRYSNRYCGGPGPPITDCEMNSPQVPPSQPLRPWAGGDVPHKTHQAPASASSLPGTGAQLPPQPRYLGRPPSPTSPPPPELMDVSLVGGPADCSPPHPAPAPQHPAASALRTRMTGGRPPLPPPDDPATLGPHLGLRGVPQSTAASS
Protocol: as §1

[7] = test system: proinflammatory cytokine production; assay: Multiplex human cytokine ELISA, LPS-stimulated MonoMac-6 cells; format: cell-based; details: 10 μM compound, 24 h, versus DMSO-treated control
Text: A multiplex human cytokine ELISA kit from Anogen (Mississauga, ON, Canada) was used to evaluate various cytokines (IL-1α, IL-1β, IL-6, GM-CSF, MCP-1, IFN-γ, and TNF) in the supernatants of MonoMac-6 cells.

[8] = test system: NF-κB/AP-1 transcriptional activity; assay: LPS-induced NF-κB/AP-1 reporter (secreted alkaline phosphatase) in THP-1Blue cells; format: cell-based, human; details: 250 ng/mL LPS, N.A.: not active at the highest tested concentration (50 μM), read-out: AP Production (THP-1 Cells) IC50
Protocol: Human THP-1Blue monocytic cells stably transfected with a secreted embryonic alkaline phosphatase gene that is under control of a NF-κB/AP-1-inducible promoter were obtained from InvivoGen (San Diego, CA, USA). These cells were cultured in RPMI 1640 medium (Mediatech Inc., Herndon, VA, USA) containing 10% (v/v) fetal bovine serum (FBS), 100 μg/mL streptomycin, 100 U/mL penicillin, 100 μg/mL phleomycin (Zeocin), and 10 μg/mL blasticidin S (all from Sigma-Aldrich, St. Louis, MO, USA).
After incubation of THP-1Blue cells (2 × 10^5 cells/well) with test compounds or control DMSO (1% final concentration) for 30 min, 250 ng/mL of lipopolysaccharide (LPS; from Escherichia coli strain 0111:B4) was added, and the cells were incubated for 24 h. Secreted alkaline phosphatase activity was assessed in the cell supernatants using the QUANTI-Blue mix (InvivoGen; absorbance at 655 nm) and compared with positive controls treated with LPS alone. Compound concentrations that inhibited 50% of the NF-κB reporter activity (IC50) were determined.

[9] = test system: IL-6 production; assay: LPS-induced IL-6 production in MonoMac-6 cells (ELISA); format: cell-based; details: Homo sapiens, MONO-MAC-6, 24 h, N.A.: not active at the highest tested concentration (50 μM)
Protocol: Human MonoMac-6 monocyte/macrophage cells (Deutsche Sammlung von Mikroorganismen und Zellkulturen GmbH, Braunschweig, Germany) were cultured in RPMI 1640 medium containing 10% (v/v) FBS, 10 μg/mL bovine insulin, 100 μg/mL streptomycin, and 100 U/mL penicillin.
An IL-6 ELISA kit (BD Biosciences, San Jose, CA, USA) was used to assess the effect of selected compounds on IL-6 production. MonoMac-6 cells were plated in 96-well plates at a density of 2 × 10^5 cells/well in culture medium supplemented with 3% (v/v) endotoxin-free FBS. Cells were pretreated with test compound or DMSO for 30 min, followed by addition of 200 ng/mL LPS for 24 h. For selected compounds, the IC50 for cytokine production was calculated by plotting percentage inhibition against the logarithm of inhibitor concentration (at least five points).

[10] = IRAK1, N.B.: no binding at concentrations up to 30 µM
[11] = DYRK1B, N.B.: no binding at concentrations up to 30 µM

T1 sequence (Q9H2X6 whole entry): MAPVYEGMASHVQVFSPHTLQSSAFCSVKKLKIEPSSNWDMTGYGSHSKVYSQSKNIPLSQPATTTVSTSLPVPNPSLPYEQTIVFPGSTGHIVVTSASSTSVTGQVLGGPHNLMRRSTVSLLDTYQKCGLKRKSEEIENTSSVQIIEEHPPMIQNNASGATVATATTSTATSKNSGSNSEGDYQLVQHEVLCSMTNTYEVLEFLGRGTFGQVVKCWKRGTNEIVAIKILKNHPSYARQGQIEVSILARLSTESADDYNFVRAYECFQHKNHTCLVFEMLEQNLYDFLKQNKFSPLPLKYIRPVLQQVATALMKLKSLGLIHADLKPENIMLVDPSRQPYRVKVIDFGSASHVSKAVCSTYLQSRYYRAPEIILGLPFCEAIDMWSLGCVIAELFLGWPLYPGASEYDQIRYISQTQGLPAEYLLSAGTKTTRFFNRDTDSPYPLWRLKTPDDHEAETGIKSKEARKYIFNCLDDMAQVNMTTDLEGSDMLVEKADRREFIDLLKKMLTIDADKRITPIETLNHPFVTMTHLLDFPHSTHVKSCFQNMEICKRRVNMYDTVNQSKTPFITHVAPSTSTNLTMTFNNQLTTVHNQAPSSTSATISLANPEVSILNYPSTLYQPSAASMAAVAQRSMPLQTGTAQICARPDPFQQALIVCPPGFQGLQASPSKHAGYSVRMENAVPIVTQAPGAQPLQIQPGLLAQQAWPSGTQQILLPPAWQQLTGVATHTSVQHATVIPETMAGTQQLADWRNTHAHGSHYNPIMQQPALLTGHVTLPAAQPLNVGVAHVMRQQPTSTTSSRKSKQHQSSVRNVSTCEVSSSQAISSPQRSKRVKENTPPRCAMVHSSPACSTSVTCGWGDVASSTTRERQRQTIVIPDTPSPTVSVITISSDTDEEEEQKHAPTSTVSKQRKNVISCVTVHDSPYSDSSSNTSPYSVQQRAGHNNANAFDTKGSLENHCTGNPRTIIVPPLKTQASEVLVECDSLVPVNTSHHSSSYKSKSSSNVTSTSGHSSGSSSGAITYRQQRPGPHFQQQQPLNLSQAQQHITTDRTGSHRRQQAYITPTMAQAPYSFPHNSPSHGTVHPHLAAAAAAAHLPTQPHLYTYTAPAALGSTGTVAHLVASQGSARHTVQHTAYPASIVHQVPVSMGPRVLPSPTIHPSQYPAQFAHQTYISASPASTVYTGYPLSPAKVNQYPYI

Compound	Kd [1] [nM]	Kd (µM) [2, 10]	Kd [3] [nM]	Kd [4] [nM]	Kd [5] [nM]	Kd (µM) [6, 11]	inhibition of secretion of IL-1α, IL-1β, IL-6, TNF and MCP-1 [7]	IC50 ([8]; 24 h) [nM]	IC50 ([8]; Homo sapiens, THP-1, 24 h) [nM]	IC50 [9] [nM]	inhibition at 10 µM ([1]; 10 μM) [%]	inhibition at 10 µM ([2]; 10 μM) [%]	Kd [2, 10] [nM]	inhibition at 10 µM ([3]; 10 μM) [%]	inhibition at 10 µM ([4]; 10 μM) [%]	inhibition at 10 µM ([5]; 10 μM) [%]	inhibition at 10 µM ([6]; 10 μM) [%]	Kd [6, 11] [nM]
O=C1Nc2c(ccc3c2CCCC3)C1=NO [Compound 5a, 3-(Hydroxyimino)-1,3,6,7,8,9-hexahydro-2H-benzo[g]indol-2-one]	730 ± 640	N.B.	7700 ± 1100	610 ± 80	1100 ± 70	N.B.	less effective	6000 ± 1300	< 6100	48300 ± 4400	–	–	–	–	–	–	–	–
O=C1Nc2c(cc([N+](=O)[O-])c3c2CCCC3)C1=NO [Compound 5d, 3-(Hydroxyimino)-5-nitro-1,3,6,7,8,9-hexahydro-2H-benzo[g]indol-2-one]	295 ± 92	–	200 ± 42	165 ± 21	520 ± 113	–	inhibited	5500 ± 1400	< 6100	12600 ± 3200	99.7	99.2	670 ± 113	98.9	99.5	98.5	96.4	470 ± 20
